Where “and” joins values, the source holds several entries; their conditions need not be identical. Equal values may be shown once.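 Results reflect a 48-hour exposure of cells in 96-well plates to compound at five concentrations. GI50 = concentration required for 50% inhibition of growth. TGI denotes the concentration required for complete inhibition of growth.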 Where a SMILES comes first, the peptide text is derived from it. [ ]: non-standard residue; d: D form. The star is where a group is joined. ξ: configuration not given here. NMeF = CN[CH](Cc1ccccc1)C(=O)O; ξNMeF = CNC(Cc1ccccc1)C(=O)O; NMeV = CN[CH](C(=O)O)C(C)C; Boc = CC(C)(C)OC(=O)*; OBn = c1ccc(CO*)cc1
Assays:
Assay in all cases: DTP human tumour cell line panel, 48 h
A549 NSCLC = tested on: A549 NSCLC
SW-620 colon = tested on: SW-620 colon
MDA-MB-435 = tested on: MDA-MB-435
CCRF-CEM leukemia = tested on: CCRF-CEM leukemia
HCT-116 colon = tested on: HCT-116 colon
MCF7 breast = tested on: MCF7 breast
SNB-19 CNS = tested on: SNB-19 CNS
COLO 205 colon = tested on: COLO 205 colon
TK-10 renal = tested on: TK-10 renal
HCT-15 colon = tested on: HCT-15 colon
IGROV1 ovarian = tested on: IGROV1 ovarian
SK-MEL-28 melanoma = tested on: SK-MEL-28 melanoma
UACC-62 melanoma = tested on: UACC-62 melanoma
MALME-3M melanoma = tested on: MALME-3M melanoma
SF-539 CNS = tested on: SF-539 CNS
MDA-MB-231 breast = tested on: MDA-MB-231 breast

| SMILES | TGI (A549 NSCLC) | TGI (SW-620 colon) | TGI (MDA-MB-435) | TGI (CCRF-CEM leukemia) | TGI (HCT-116 colon) | TGI (MCF7 breast) | TGI (SNB-19 CNS) | TGI (COLO 205 colon) | TGI (TK-10 renal) | TGI (HCT-15 colon) | TGI (IGROV1 ovarian) | TGI (SK-MEL-28 melanoma) | TGI (UACC-62 melanoma) | TGI (MALME-3M melanoma) | TGI (SF-539 CNS) | TGI (MDA-MB-231 breast) | GI50 (CCRF-CEM leukemia) | GI50 (SF-539 CNS) | GI50 (SNB-19 CNS) |
| --- | --- | --- | --- | --- | --- | --- | --- | --- | --- | --- | --- | --- | --- | --- | --- | --- | --- | --- | --- |
| COC(=O)C1(C(=O)OC)N=C(C)OC1c1ccccc1O (stereo not given) | > 100 µM | > 100 µM | > 100 µM | > 100 µM | > 100 µM | > 100 µM | > 100 µM | > 100 µM | > 100 µM | > 100 µM | > 100 µM | > 100 µM | > 100 µM |  |  |  |  |  |  |
| C=C1CC[C@@H]2C13[C@@H]1[C@H](CC(=O)[C@@]23C)C1(C)C (stereo not given in full) | > 100 µM | > 100 µM | > 100 µM |  | > 100 µM | > 100 µM |  | > 100 µM | > 100 µM | > 100 µM | > 100 µM | > 100 µM | > 100 µM | > 100 µM | > 100 µM |  |  |  |  |
| CCN(CC)CCNc1ccc2ncn3c4ccc(OC)cc4c(=O)c1c23 | 9.71 µM | 11.1 µM | 18.6 µM | 19 µM | 13.5 µM | > 100 µM | 21.4 µM | 15.5 µM | 29.2 µM | 15.1 µM | 28.1 µM | 28.4 µM | 33.9 µM | 25.1 µM | 20 µM |  |  |  |  |
| CC(C)[C@@H](C(=O)N(C)[C@H](C(=O)N1CCC[C@H]1C(=O)OCc1ccccc1)C(C)C)N(C)C(=O)C(Cc1ccccc1)N(C)C(=O)[C@H](NC(=O)OC(C)(C)C)C(C)C (stereo not given in full) (Boc-[dV][ξNMeF][NMeV][NMeV]P-OBn) | > 31.6 µM | > 31.6 µM |  | > 31.6 µM | > 31.6 µM |  | > 31.6 µM | > 100 µM | > 31.6 µM | > 31.6 µM | > 31.6 µM | > 31.6 µM | > 31.6 µM | > 100 µM | > 31.6 µM |  |  |  |  |
| COC(=O)[C@@H]1CN(C(=O)CCc2ccccc2)C(=O)N1 | > 100 µM | > 100 µM | > 100 µM | > 100 µM | > 100 µM |  | > 100 µM | > 100 µM | > 100 µM | > 100 µM | > 100 µM | > 100 µM |  | > 100 µM | > 100 µM | > 100 µM |  |  |  |
| O=C(O)CCC(NC(=O)c1ccc(Nc2cnc3cc(C(F)(F)F)ccc3n2)cc1)C(=O)O (stereo not given) | > 100 µM | > 100 µM |  | > 100 µM | > 100 µM | > 100 µM | > 100 µM | > 100 µM |  | > 100 µM | > 100 µM | > 100 µM | > 100 µM | > 100 µM | > 100 µM |  |  |  |  |
| S=C1NC2=C(CSC/C2=C\c2ccc(Cl)cc2)C(c2ccc(Cl)cc2)N1 (stereo not given) | > 100 µM | > 100 µM |  | 70.9 µM | > 100 µM | > 100 µM | > 100 µM | 32.7 µM | > 100 µM | > 100 µM | > 100 µM | > 100 µM | > 100 µM | 71.3 µM |  | > 100 µM |  |  |  |
| C=C1CN=C(Nc2ccc(Cl)cc2)S1 | > 100 µM | > 100 µM |  | > 100 µM | > 100 µM | > 100 µM | > 100 µM | > 100 µM | > 100 µM | > 100 µM | > 100 µM | > 100 µM |  | > 100 µM | > 100 µM | > 100 µM |  |  |  |
| Cc1ccc(Sc2ccccc2C23OC(C)(C4C(=O)N(c5ccccc5)C(=O)C42)N(C)C3=O)cc1 (stereo not given) | > 100 µM | > 100 µM | > 100 µM | > 100 µM | > 100 µM |  | > 100 µM | > 100 µM | > 100 µM | > 100 µM | > 100 µM | > 100 µM | > 100 µM | > 100 µM | > 100 µM | > 100 µM |  |  |  |
| COc1ccc2c(c1)CCc1c-2[nH]c2cc3c(cc2c1=O)OCO3 | > 100 µM | > 100 µM |  | > 100 µM |  |  | > 100 µM | > 100 µM | > 100 µM | > 100 µM | > 100 µM | > 100 µM | > 100 µM | > 100 µM | > 100 µM |  |  |  |  |
| O=C(Sc1c(-c2ccccc2)c(=O)n(-c2ccccc2)c(=S)n1-c1ccccc1)c1ccccc1 | > 100 µM | > 100 µM | > 100 µM | 76.3 µM | > 100 µM | > 100 µM | > 100 µM | > 100 µM | > 100 µM | > 100 µM | > 100 µM | > 100 µM | > 100 µM | > 100 µM |  |  |  |  |  |
| C=C1CC(OC)(C(OC)C(=O)N[C@H]2OCO[C@H]3C2O[C@H](C[C@@H](COC)OC)C(C)(C)C3OC)O[C@H](C)[C@@H]1C (stereo not given in full) | 5.24 µM | 15 µM |  | 1.43 µM | 5.77 µM | > 47 µM | 3.22 µM | 4.72 µM |  | 8.25 µM | 12.3 µM | 3.45 µM | 3.72 µM |  | 2.85 µM |  |  |  |  |
| O=C(NN1C(=O)CS(=O)(=O)C1c1ccc(Cl)c(Cl)c1)c1ccncc1 (stereo not given) | > 100 µM | > 100 µM |  | > 86.1 µM | > 100 µM | > 100 µM | > 100 µM | > 100 µM |  | > 100 µM | > 100 µM | > 100 µM | > 100 µM | > 100 µM | > 100 µM |  |  |  |  |
| Nc1nc(SCC(=O)c2ccccc2)c2[nH]cnc2n1 | > 100 µM | > 100 µM |  | > 100 µM | > 100 µM |  | > 100 µM | > 100 µM | > 100 µM | > 100 µM | > 100 µM | > 100 µM | > 100 µM | > 100 µM | > 100 µM |  |  |  |  |
| CC(=O)[O-].CC(=O)[O-].O=C(N/N=C/c1cc(Cl)cc(Cl)c1[OH2+])c1ccncc1.[Mn+2] | 79.7 µM | 8.09 µM |  | 2.15 µM | 17.7 µM |  | 36.1 µM | 10.9 µM | 27.3 µM | 25.1 µM | 10.7 µM | 25 µM | 5.54 µM | 18 µM | 13.4 µM |  |  |  |  |
| CC[C@H](C)[C@@H]([C@@H](CC(=O)N1CCC[C@H]1[C@H](OC)[C@@H](C)C(=O)NCCc1ccccc1)OC)N(C)C(=O)C(NC(=O)[C@H](C(C)C)N(C)C)C(C)C (stereo not given in full) | 1.1 µM | > 10 µM | 0.000192 µM |  | 0.0038 µM | > 10 µM |  | 0.000267 µM | > 10 µM | > 10 µM |  | > 10 µM | > 10 µM | > 10 µM |  | 0.00271 µM |  |  |  |
| Cc1cc(C)c(NS(=O)c2cccc(C(F)(F)F)c2)c(C)c1 (stereo not given) | > 100 µM | > 100 µM | > 100 µM | > 100 µM |  | > 100 µM | > 100 µM | > 100 µM | > 100 µM | > 100 µM |  | > 100 µM |  | > 100 µM | > 100 µM |  |  |  |  |
| CN(C)c1ccc(C=Nc2ccc(-c3nc4ccccc4s3)cc2)cc1 | > 100 µM | > 100 µM | > 100 µM | 10.9 µM | > 100 µM | 76.5 µM | > 100 µM | 62.3 µM | 75.8 µM | > 100 µM | > 100 µM | > 100 µM | 31.7 µM | 95.7 µM | > 100 µM |  |  |  |  |
| C/C(O)=C(\C=N\C(=S)N=Nc1c(O)[nH]c2ccccc12)C(=O)Nc1ccccc1C | > 100 µM | > 100 µM | > 100 µM |  | > 100 µM |  | > 100 µM | > 100 µM | > 100 µM | > 100 µM | > 100 µM | > 100 µM | > 100 µM |  | > 100 µM | > 100 µM |  |  |  |
| CC(C)C(NC(=O)OC(C)(C)C)C(=O)N(C)C(Cc1ccccc1)C(=O)N(C)C(C(=O)OCc1ccccc1)C(C)C (stereo not drawn) (Boc-Val-[NMeF]-[NMeV]-OBn; configuration not given here) | > 100 µM | > 100 µM |  | > 100 µM | > 100 µM |  | > 100 µM | > 100 µM | > 100 µM | > 100 µM | > 100 µM | > 100 µM | > 100 µM | > 100 µM | > 100 µM |  | 17.8 µM and 39.1 µM | 16.4 µM and 78.4 µM | > 100 µM and 32.8 µM |
| CCN(CC)C(=O)CCn1cc(F)c(=O)[nH]c1=O | > 100 µM | > 100 µM |  | > 100 µM | > 100 µM |  | > 100 µM | > 100 µM | > 100 µM | > 100 µM | > 100 µM | > 100 µM | > 100 µM | > 100 µM | > 100 µM |  |  |  |  |
| Cc1ccc(Nc2cccc3c2C(=O)c2cccc(Nc4ccc(C)cc4S(=O)(=O)O)c2C3=O)c(S(=O)(=O)O)c1 | > 100 µM | > 100 µM |  | > 100 µM | > 100 µM |  | > 100 µM | > 100 µM | > 100 µM | > 100 µM | > 100 µM | > 100 µM | > 100 µM | > 100 µM | > 100 µM |  |  |  |  |
| O=C(OCc1ccccc1)C(Cc1ccc(OCc2ccccc2)cn1)NC(=O)C(F)(F)F (stereo not given) | > 100 µM | > 100 µM | > 100 µM |  | > 100 µM |  | > 100 µM | > 100 µM | > 100 µM | > 100 µM | > 100 µM | > 100 µM |  | > 100 µM | > 100 µM | > 100 µM |  |  |  |
| COc1cc(S(=O)(=O)Nc2ccc(-c3csc(N4C(=O)C(C)SC4c4cccs4)n3)cc2)ccc1Cl (stereo not given) |  | > 100 µM | > 100 µM | 52.2 µM | > 100 µM | > 100 µM |  | 49.4 µM |  | > 100 µM | > 100 µM | 69 µM | > 100 µM | > 100 µM | > 100 µM |  |  |  |  |
